Laboratory results taken from patent US20060084675A1, “Combined treatment with artesunate and an epidermal growth factor receptor kinase inhibitor” (priority 2004, published 2006).
Several values for one entry are separate records, joined by “and”; a condition that tells them apart may be missing. Equal entries are not always repeated. Where two headings read alike, the source gives them in different places.

How the values were obtained:
14 GBM cell lines = assay: Growth inhibition assay, panel; format: cell-based; settings: Homo sapiens; ART alone; range over 14 cell lines
Text: (1997) J. Biol. Chem. 272:2927-2935). The cell lines were provided by Dr. W. K. Cavenee (Ludwig Institute for Cancer Research, San Diego, Calif., U.S.A.). Cell culture conditions of these cell lines were as described ([…], et al. (1996) Cancer Res. 56:5079-5086). Nine established GBM cell lines derived from histopathologically confirmed neurosurgical specimens obtained in the Department for Neurosurgery, University of Gottingen, Germany, were maintained in RPMI 1640 medium (BioWhittaker, Walkersville, Md., U.S.A.) supplemented with 10% heat-inactivated fetal calf serum and incubated in a humidified 5% CO2 atmosphere at 37° C. Medium was exchanged twice weekly, and cells were passaged upon reaching subconfluence. At the beginning of the study, all cell lines were beyond their 20th passage. The in vitro response to cytostatic drugs was evaluated by means of a growth inhibition assay. Aliquots of 5×10^3 cells/ml were seeded in culture medium, and drugs were added at different concentrations. Cells were counted 10 days after seeding. These growth curves represent the net outcome of cell proliferation and cell death. Cell numbers were quantitated each in eight independent determinations. […] G. and Peckham, M. J. (1979) Int. J. Radiat. Oncol. Biol. Phys. 5:85-91; Berenbaum, M. C. (1981) Adv. Cancer Res. 35:269-335).

[1] = intravenous application of 2 mg/kg; cited from earlier work
G-599GM cell line = assay: Growth inhibition assay (incl. isobolographic analysis); format: cell-based; settings: Homo sapiens; for IC50: read-out: IC50, drug alone
Experimental: Nine established GBM cell lines derived from histopathologically confirmed neurosurgical specimens obtained in the Department for Neurosurgery, University of Gottingen, Germany, were maintained in RPMI 1640 medium (BioWhittaker, Walkersville, Md., U.S.A.) supplemented with 10% heat-inactivated fetal calf serum and incubated in a humidified 5% CO2 atmosphere at 37° C. Medium was exchanged twice weekly, and cells were passaged upon reaching subconfluence. At the beginning of the study, all cell lines were beyond their 20th passage. The in vitro response to cytostatic drugs was evaluated by means of a growth inhibition assay. Aliquots of 5×10^3 cells/ml were seeded in culture medium, and drugs were added at different concentrations. Cells were counted 10 days after seeding. These growth curves represent the net outcome of cell proliferation and cell death. Cell numbers were quantitated each in eight independent determinations. […] G. and Peckham, M. J. (1979) Int. J. Radiat. Oncol. Biol. Phys. 5:85-91; Berenbaum, M. C. (1981) Adv. Cancer Res. 35:269-335).

[2] = patients with advanced solid malignancies, phase I; cited from earlier work
U-87MG.WT-2N cells = assay: Growth inhibition assay; format: cell-based; settings: Homo sapiens
Experimental: (§1) The establishment of the parental human GBM cell line U-87MG and its derivatives which overexpress exogenous wild-type epidermal growth factor receptor (U-87MG.WT-2N), tyrosine kinase-deficient EGFR (U-87MG.DK-2N), EGFR with a genomic deletion of exons 2 to 7 (U-87MG.ΔEGFR), or control expression vector (U-87MG.LUX), respectively, has been described elsewhere (Huang, H-J S et al. (1997) J. Biol. Chem. 272:2927-2935). The cell lines were provided by Dr. W. K. Cavenee (Ludwig Institute for Cancer Research, San Diego, Calif., U.S.A.). Cell culture conditions of these cell lines were as described (Nagane M, et al. (1996) Cancer Res. 56:5079-5086).
(§2) The in vitro response to cytostatic drugs was evaluated by means of a growth inhibition assay. Aliquots of 5×10^3 cells/ml were seeded in culture medium, and drugs were added at different concentrations. Cells were counted 10 days after seeding. These growth curves represent the net outcome of cell proliferation and cell death. Cell numbers were quantitated each in eight independent determinations.

U-87MG cells = assay: Growth inhibition assay; format: cell-based; settings: Homo sapiens, 240 h, single drug, cells counted 10 days after seeding, read-out: IC50 calculated from the dose-response curves
Experimental: as §1, §2

G-1265GM = assay: Growth inhibition assay; format: cell-based; settings: Homo sapiens
Experimental: Nine established GBM cell lines derived from histopathologically confirmed neurosurgical specimens obtained in the Department for Neurosurgery, University of Gottingen, Germany, were maintained in RPMI 1640 medium (BioWhittaker, Walkersville, Md., U.S.A.) supplemented with 10% heat-inactivated fetal calf serum and incubated in a humidified 5% CO2 atmosphere at 37° C. Medium was exchanged twice weekly, and cells were passaged upon reaching subconfluence. At the beginning of the study, all cell lines were beyond their 20th passage.
as §2

SMILES	IC50 (14 GBM cell lines)	peak plasma concentration [1]	IC50 (G-599GM cell line; single drug)	average minimal steady state plasma concentration [2]	inhibition at 1 µM (U-87MG.WT-2N cells)	IC50 (U-87MG cells)	IC50 (G-599GM cell line)	inhibition at 1 µM (G-599GM cell line; read-out: growth inhibition)	inhibition at 1 µM (G-1265GM)
C[C@H]1[C@H](OC(=O)CCC(=O)O)O[C@@H]2O[C@@]3(C)CC[C@H]4[C@H](C)CC[C@@H]1[C@@]24OO3 [ART, artesunate]	1.5 to 18.5 µM	6.88 ± 4.69 µM	4.2 µM						
C#Cc1cccc(Nc2ncnc3cc(OCCOC)c(OCCOC)cc23)c1 [OSI-774, [6,7-bis(2-methoxyethoxy)-4-quinazolin-4-yl]-(3-ethynylphenyl)amine]				1.2 μg/ml and 3 μM	33.8%	8.6 µM	1.3 µM	23.4%	-1.79%
